In paper PMC6934184, “Selective DNA-PKcs inhibition extends the therapeutic index of localized radiotherapy and chemotherapy” (The Journal of Clinical Investigation, 2019):

Target: T1, PRKCA (PKC alpha) (Homo sapiens, UniProt P17252)
T1 construct: purchased Thermo Fisher Scientific (Life Technologies) SelectScreen
Experiment: SelectScreen Z'LYTE
Format: biochemical
Method in brief: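 SelectScreen broad panel; activity (Z'LYTE, Adapta) plus binding formats. ATP: Km app for CSF1R Z'LYTE; 10 for CAMK1 Adapta. Readout = % per kinase.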

In the case of `CN(C(=O)CN1CCOCC1)c1ccc2sc3c(-c4cccc5c(=O)cc(N6CC7CCC(C6)O7)oc45)cccc3c2c1` [NU5455], the inhibition at 1 µM is reported as -2%.
